This is an account of results in patent US6207172A, “Composition for the delivery of a pharmaceutical agent to a patient” (Warner-Lambert Company, priority 1998, dated 2001).

Series [1] is described as follows: Mean particle size of the PEG/PVP formulation after filtration. To be noted: diameter; PEG 3350/10% PVP pH 7.4 phosphate buffer formulation, filtered through 0.45 μm PTFE filter. Type of series: physicochemical. The procedure: After formation of the composition for delivering a pharmaceutical agent to a patient, the composition has been successfully extruded through both 0.45 and […] nylon filters, yielding a particle size of around 500 or 300 nm, respectively. In addition, the compositions can be autoclaved. The compositions have also been freeze dried and can be reconstituted by the addition of water or a buffer.
To the melted phase were then added 3 mL of 10% PVP in pH 7.4 phosphate buffer with stirring. The mixture was stirred during cool-down to room temperature. Before administration, the formulation was filtered through a 0.45 μm PTFE filter. […] The final concentration was calculated to be 10 mg/mL.
Butyl-[2,5-dimethyl-7-(2,4,6-trimethyl-phenyl)-7H-pyrrolo[2,3-d]pyrimidin-4-yl]-ethyl-amine (CRF-1 receptor antagonist) was formulated in the PEG/PVP system as follows. Thirty milligrams of Butyl-[2,5-dimethyl-7-(2,4,6-trimethyl-phenyl)-7H-pyrrolo[2,3-d]pyrimidin- 4-yl]-ethyl-amine were dissolved in 1.5 g of molten (65° C.) PEG 3350. To the melted phase were then added 1.5 mL of 10% PVP in pH 7.4 phosphate buffer with stirring. The mixture was stirred during cool-down to room temperature. Before administration, the formulation was filtered through a 0.45 μm PTFE filter. […] The final concentration was calculated to be 10 mg/mL.

Series [2] is described as follows: Oral pharmacokinetics in fasted male Wistar rats. Type of series: in vivo. The conditions noted are these: for AUC(0-t) at 8 h / Cmax: rat, blood, po, 10 mg/kg, fasted male Wistar rats. How it is done:
Single, 10-mg/kg oral gavage doses of the Butyl-[2,5-dimethyl-7-(2,4,6-trimethyl-phenyl)-7H-pyrrolo[2,3-d]pyrimidin- 4-yl]-ethyl-amine PEG/PVP formulation were given to 3 fasted male Wistar rats. In parallel, single, 10-mg/kg oral gavage doses of Butyl-[2,5-dimethyl-7-(2,4,6-trimethyl-phenyl)-7H-pyrrolo[2,3-d]pyrimidin- 4-yl]-ethyl-amine, as an aqueous suspension in 0.1% Tween 80, were administered to 3 additional fasted male Wistar rats. Blood samples were serially drawn over the 24-hour period following administration and assayed for Butyl-[2,5-dimethyl-7-(2,4,6-trimethyl-phenyl)-7H-pyrrolo[2,3-d]pyrimidin- 4-yl]-ethyl-amine concentrations.

Series [3] deals with tumor-bearing mice. Briefly: Deaths of tumor-bearing mice during 10 days oral gavage dosing. Type of series: in vivo. To be noted: 3 mice.
Description: (§1) Single, 200-mg/kg daily oral gavage doses of the PEG/PVP formulation were given to 3 tumor-bearing mice for 10 days.
The test system of series [4] is tumor-bearing mice. The experiment in a line: Tumor growth inhibition in tumor-bearing mice (change in tumor size from Day 1). The conditions noted are these: PEG/PVP 200 mg/kg daily vs DMA/lactate 400 mg/kg (200 mg/kg twice daily), oral gavage, 10 days. Type of series: in vivo.
Description: as §1
[5] abbreviates: PEG/PVP emulsion vs 0.1% Tween 80 suspension, 10 mg/kg oral.

Where two headings read alike, the source gives them in different places.

In the case of `CCCCN(CC)c1nc(C)nc2c1c(C)cn2-c1c(C)cc(C)cc1C` [Butyl-[2,5-dimethyl-7-(2,4,6-trimethyl-phenyl)-7H-pyrrolo[2,3-d]pyrimidin-4-yl]-ethyl-amine], the Mean particle size entry in series [1] was “approximately 420 nm”. Besides, in series [2] (setting [5]), the “AUC(0-8), difference between the 2 dose groups” value is given as “Neither Cmax, AUC(0-8), nor half-life differed significantly between the 2 dose groups”; the “Cmax, difference between the 2 dose groups” value is listed as “Neither Cmax, AUC(0-8), nor half-life differed significantly between the 2 dose groups”; the “half-life, difference between the 2 dose groups” value is on record as “Neither Cmax, AUC(0-8), nor half-life differed significantly between the 2 dose groups”. Moreover, the AUC(0-t) at 8 h in series [2] (PEG/PVP emulsion, 10 mg/kg single oral gavage, read-out: AUC(0-8), PEG/PVP-dosed rats) came out at 283 ng·h/mL. Further, the Cmax in series [2] (PEG/PVP emulsion, 10 mg/kg single oral gavage, read-out: Mean Cmax, PEG/PVP emulsion group) is 283 ng/mL. Besides, the AUC(0-t) at 8 h in series [2] (aqueous suspension in 0.1% Tween 80, 10 mg/kg single oral gavage, read-out: AUC(0-8), suspension-dosed) turned out to be 267 ng·h/mL. The Cmax in series [2] (aqueous suspension in 0.1% Tween 80, 10 mg/kg single oral gavage, read-out: Mean Cmax, 0.1% Tween group) stood at 267 ng/mL.
In the case of `CNc1cc2c(Nc3cccc(Br)c3)ncnc2cn1` [N^4-(3-Bromo-phenyl)-N^6-methyl-pyrido[3,4-d]pyrimidine-4,6-diamine], in series [3] (DMA/lactate, 400 mg/kg (200 mg/kg oral gavage twice daily)), the “mice that died, DMA/lactate system” value is given as “all 3 mice dosed with the DMA/lactate system died”. The “mice that died, PEG/PVP preparation” value in series [3] (PEG/PVP, 200 mg/kg daily oral gavage) is reported as “None of the mice given the PEG/PVP preparation died”. In series [1], the Mean particle size result is on record as “approximately 400 nm”. Besides, in series [4], the “Tumor growth inhibition, ratio PEG/PVP emulsion to DMA/lactate preparation” value is 4 fold.
